Measurements from US20250230193A1, “CYCLIC COMPOUND HAVING SELECTIVE KRAS INHIBITORY EFFECT ON HRAS AND NRAS” (CHUGAI SEIYAKU KABUSHIKI KAISHA, priority 2022, published 2025).

Columns and labels:
[1] = molecular target: GDP-bound NRAS wild-type protein (Homo sapiens, UniProt P01111); assay: Binding to NRAS by surface plasmon resonance (SPR), Single Cycle Kinetics; conditions: KD ratio, GDP-bound NRAS wild-type vs GDP-bound KRAS wild-type, SPR
[2] = molecular target: GDP-bound HRAS wild-type protein (Homo sapiens, UniProt P01112); assay: Binding to HRAS by surface plasmon resonance (SPR), Single Cycle Kinetics; conditions: KD ratio, GDP-bound HRAS wild-type vs GDP-bound KRAS wild-type, SPR
Sequence of GDP-bound HRAS wild-type protein (P01112 whole entry): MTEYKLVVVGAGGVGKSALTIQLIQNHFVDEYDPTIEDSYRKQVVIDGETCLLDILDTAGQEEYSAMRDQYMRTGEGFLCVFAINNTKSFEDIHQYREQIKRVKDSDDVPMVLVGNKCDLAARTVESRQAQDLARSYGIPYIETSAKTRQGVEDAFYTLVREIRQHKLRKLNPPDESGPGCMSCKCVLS

Sequence of GDP-bound NRAS wild-type protein (P01111 whole entry): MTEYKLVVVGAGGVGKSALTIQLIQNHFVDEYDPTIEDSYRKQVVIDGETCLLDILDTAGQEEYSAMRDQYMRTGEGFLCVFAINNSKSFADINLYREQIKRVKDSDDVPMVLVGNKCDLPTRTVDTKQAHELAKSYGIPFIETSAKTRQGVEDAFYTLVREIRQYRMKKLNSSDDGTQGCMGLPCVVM

SMILES | NRAS/KRAS (ratio of KD value for NRAS to KD value for KRAS) [1] | HRAS/KRAS (ratio of KD value for HRAS to KD value for KRAS) [2]
CCO[C@@H]1C[C@H]2C(=O)NC3(CC(C)(C)C3)C(=O)N(C)[C@@H](C3CCCC3)C(=O)N(C)[C@H](C(=O)N(C)C)CC(=O)N(C)[C@@H](C)C(=O)N[C@@H]([C@@H](C)CC)C(=O)N(C)CC(=O)N(C)[C@H]3C/C=C\CCN(C3=O)[C@@H](Cc3ccc(C(F)(F)F)cc3)C(=O)N(C)CC(=O)N[C@@H](CCc3ccc(C(F)(F)F)c(OC)c3)C(=O)N2C1 [PP1674] | A (a compound having 10 or more and less than 20 is denoted as A) | A (a compound having 10 or more and less than 20 is denoted as A)
CCO[C@@H]1C[C@H]2C(=O)NC3(CC(C)(C)C3)C(=O)N(C)[C@@H](C3CCCC3)C(=O)N(C)[C@H](C(=O)N(C)C)CC(=O)N(C)[C@@H](CC(F)(F)F)C(=O)N[C@@H]([C@@H](C)CC)C(=O)N(C)CC(=O)N(C)[C@H]3C/C=C\CCN(C3=O)[C@@H](Cc3ccc(C(F)(F)F)cc3)C(=O)N(C)CC(=O)N[C@@H](CCc3ccc(C(F)(F)F)c(OC)c3)C(=O)N2C1 [PP1675] | A (a compound having 10 or more and less than 20 is denoted as A) | B (a compound having 3 or more and less than 10 is denoted as B)
CCO[C@@H]1C[C@H]2C(=O)NC3(CC(C)(C)C3)C(=O)N(C)[C@@H](C3CCCC3)C(=O)N(C)[C@H](C(=O)N(C)CC)CC(=O)N(C)[C@@H](COC)C(=O)N[C@@H]([C@@H](C)CC)C(=O)N(C)CC(=O)N(C)[C@H]3C/C=C\CCN(C3=O)[C@@H](Cc3ccc(C(F)(F)F)cc3)C(=O)N(C)CC(=O)N[C@@H](CCc3ccc(C(F)(F)F)c(OC)c3)C(=O)N2C1 [PP1679] | A (a compound having 10 or more and less than 20 is denoted as A) | A (a compound having 10 or more and less than 20 is denoted as A)
CC[C@H](C)[C@@H]1NC(=O)[C@H](CC(F)(F)F)N(C)C(=O)C[C@@H](C(=O)N(C)C)N(C)C(=O)[C@H](C2CCCC2)N(C)C(=O)C2(CC(C)(C)C2)NC(=O)[C@@H]2C[C@H](C)CN2C(=O)[C@H](CCc2cc(F)c(C(F)(F)F)c(F)c2)NC(=O)CN(C)C(=O)[C@H](Cc2ccc(C(F)(F)F)cc2)N2CC/C=C\C[C@@H](C2=O)N(C)C(=O)CN(C)C1=O [PP1682] | AA (a compound having 20 or more is denoted as AA) | A (a compound having 10 or more and less than 20 is denoted as A)
CCC[C@H]1C(=O)N[C@@H]([C@@H](C)CC)C(=O)N(C)CC(=O)N(C)[C@H]2C/C=C\CCN(C2=O)[C@@H](Cc2ccc(C(F)(F)F)cc2)C(=O)N(C)CC(=O)N[C@@H](CCc2cc(F)c(C(F)(F)F)c(F)c2)C(=O)N2C[C@@H](C)C[C@H]2C(=O)NC2(CC(C)(C)C2)C(=O)N(C)[C@@H](C2CCCC2)C(=O)N(C)[C@H](C(=O)N(C)C)CC(=O)N1C [PP1683] | A (a compound having 10 or more and less than 20 is denoted as A) | A (a compound having 10 or more and less than 20 is denoted as A)
CC[C@H](C)[C@@H]1NC(=O)[C@H](CC2CCC2)N(C)C(=O)C[C@@H](C(=O)N(C)C)N(C)C(=O)[C@H](C2CCCC2)N(C)C(=O)C2(CC(C)(C)C2)NC(=O)[C@@H]2C[C@H](C)CN2C(=O)[C@H](CCc2cc(F)c(C(F)(F)F)c(F)c2)NC(=O)CN(C)C(=O)[C@H](Cc2ccc(C(F)(F)F)cc2)N2CC/C=C\C[C@@H](C2=O)N(C)C(=O)CN(C)C1=O [PP1684] | A (a compound having 10 or more and less than 20 is denoted as A) | A (a compound having 10 or more and less than 20 is denoted as A)
CCCN(C)C(=O)[C@@H]1CC(=O)N(C)[C@@H](CC(F)F)C(=O)N[C@@H]([C@@H](C)CC)C(=O)N(C)CC(=O)N(C)[C@H]2C/C=C\CCN(C2=O)[C@@H](Cc2ccc(C(F)(F)F)cc2)C(=O)N(C)CC(=O)N[C@@H](CCc2cc(F)c(C(F)(F)F)c(F)c2)C(=O)N2C[C@H](F)C[C@H]2C(=O)NC2(CC(C)(C)C2)C(=O)N(C)[C@@H](C2CCCC2)C(=O)N1C [PP1687] | A (a compound having 10 or more and less than 20 is denoted as A) | A (a compound having 10 or more and less than 20 is denoted as A)
CC[C@H](C)[C@@H]1NC(=O)[C@H](CC(F)(F)F)N(C)C(=O)C[C@@H](C(=O)N(C)C)N(C)C(=O)[C@H](C2CCCC2)N(C)C(=O)C2(CC(C)(C)C2)NC(=O)[C@@H]2C[C@@H](F)CN2C(=O)[C@H](CCc2cc(F)c(C(F)(F)F)c(F)c2)NC(=O)CN(C)C(=O)[C@H](Cc2ccc(C(F)(F)F)cc2)N2CC/C=C\C[C@@H](C2=O)N(C)C(=O)CN(C)C1=O [PP1688] | A (a compound having 10 or more and less than 20 is denoted as A) | A (a compound having 10 or more and less than 20 is denoted as A)
CCC[C@H]1C(=O)N[C@@H]([C@@H](C)CC)C(=O)N(C)CC(=O)N(C)[C@H]2C/C=C\CCN(C2=O)[C@@H](Cc2ccc(C(F)(F)F)cc2)C(=O)N(C)CC(=O)N[C@@H](CCc2cc(F)c(C(F)(F)F)c(F)c2)C(=O)N2C[C@H](F)C[C@H]2C(=O)NC2(CC(C)(C)C2)C(=O)N(C)[C@@H](C2CCCC2)C(=O)N(C)[C@H](C(=O)N(C)C)CC(=O)N1C [PP1689] | A (a compound having 10 or more and less than 20 is denoted as A) | B (a compound having 3 or more and less than 10 is denoted as B)
C#CC[C@H]1C(=O)N[C@@H]([C@@H](C)CC)C(=O)N(C)CC(=O)N(C)[C@H]2C/C=C\CCN(C2=O)[C@@H](Cc2ccc(C(F)(F)F)cc2)C(=O)N(C)CC(=O)N[C@@H](CCc2cc(F)c(C(F)(F)F)c(F)c2)C(=O)N2C[C@H](F)C[C@H]2C(=O)NC2(CC(C)(C)C2)C(=O)N(C)[C@@H](C2CCCC2)C(=O)N(C)[C@H](C(=O)N(C)CC)CC(=O)N1C [PP1691] | A (a compound having 10 or more and less than 20 is denoted as A) | A (a compound having 10 or more and less than 20 is denoted as A)
C#CC[C@H]1C(=O)N[C@@H]([C@@H](C)CC)C(=O)N(C)CC(=O)N(C)[C@H]2C/C=C\CCN(C2=O)[C@@H](Cc2ccc(C(F)(F)F)cc2)C(=O)N(C)CC(=O)N[C@@H](CCc2cc(F)c(C(F)(F)F)c(F)c2)C(=O)N2C[C@H](F)C[C@H]2C(=O)NC2(CC(C)(C)C2)C(=O)N(C)[C@@H](C2CCCC2)C(=O)N(C)[C@H](C(=O)N(C)CCC)CC(=O)N1C [PP1692] | AA (a compound having 20 or more is denoted as AA) | A (a compound having 10 or more and less than 20 is denoted as A)
CCCC[C@H]1C(=O)N[C@@H]([C@@H](C)CC)C(=O)N(C)CC(=O)N(C)[C@H]2C/C=C\CCN(C2=O)[C@@H](Cc2ccc(C(F)(F)F)cc2)C(=O)N(C)CC(=O)N[C@@H](CCc2cc(F)c(C(F)(F)F)c(F)c2)C(=O)N2C[C@H](F)C[C@H]2C(=O)NC2(CC(C)(C)C2)C(=O)N(C)[C@@H](C2CCCC2)C(=O)N(C)[C@H](C(=O)N(C)C)CC(=O)N1C [PP1693] | AA (a compound having 20 or more is denoted as AA) | A (a compound having 10 or more and less than 20 is denoted as A)
CC[C@H](C)[C@@H]1NC(=O)[C@H](CC(C)C)N(C)C(=O)C[C@@H](C(=O)N(C)CC)N(C)C(=O)[C@H](C2CCCC2)N(C)C(=O)C2(CC(C)(C)C2)NC(=O)[C@@H]2C[C@@H](F)CN2C(=O)[C@H](CCc2cc(F)c(C(F)(F)F)c(F)c2)NC(=O)CN(C)C(=O)[C@H](Cc2ccc(C(F)(F)F)cc2)N2CC/C=C\C[C@@H](C2=O)N(C)C(=O)CN(C)C1=O [PP1694] | A (a compound having 10 or more and less than 20 is denoted as A) | A (a compound having 10 or more and less than 20 is denoted as A)
CCCN(C)C(=O)[C@@H]1CC(=O)N(C)[C@@H](COC)C(=O)N[C@@H]([C@@H](C)CC)C(=O)N(C)CC(=O)N(C)[C@H]2C/C=C\CCN(C2=O)[C@@H](Cc2ccc(C(F)(F)F)cc2)C(=O)N(C)CC(=O)N[C@@H](CCc2cc(F)c(C(F)(F)F)c(F)c2)C(=O)N2C[C@H](F)C[C@H]2C(=O)NC2(CC(C)(C)C2)C(=O)N(C)[C@@H](C2CCCC2)C(=O)N1C [PP1696] | AA (a compound having 20 or more is denoted as AA) | A (a compound having 10 or more and less than 20 is denoted as A)
CCCOC[C@H]1C(=O)N[C@@H]([C@@H](C)CC)C(=O)N(C)CC(=O)N(C)[C@H]2C/C=C\CCN(C2=O)[C@@H](Cc2ccc(C(F)(F)F)cc2)C(=O)N(C)CC(=O)N[C@@H](CCc2cc(F)c(C(F)(F)F)c(F)c2)C(=O)N2C[C@H](F)C[C@H]2C(=O)NC2(CC(C)(C)C2)C(=O)N(C)[C@@H](C2CCCC2)C(=O)N(C)[C@H](C(=O)N(C)CC)CC(=O)N1C [PP1697] | A (a compound having 10 or more and less than 20 is denoted as A) | A (a compound having 10 or more and less than 20 is denoted as A)
CCCOC[C@H]1C(=O)N[C@@H]([C@@H](C)CC)C(=O)N(C)CC(=O)N(C)[C@H]2C/C=C\CCN(C2=O)[C@@H](Cc2ccc(C(F)(F)F)cc2)C(=O)N(C)CC(=O)N[C@@H](CCc2cc(F)c(C(F)(F)F)c(F)c2)C(=O)N2C[C@H](F)C[C@H]2C(=O)NC2(CC(C)(C)C2)C(=O)N(C)[C@@H](C2CCCC2)C(=O)N(C)[C@H](C(=O)N(C)CCC)CC(=O)N1C [PP1698] | A (a compound having 10 or more and less than 20 is denoted as A) | A (a compound having 10 or more and less than 20 is denoted as A)
